Laboratory results reported in US9233981B1, “Substituted phenyl hexahydropyrano[3,4-d][1,3]thiazin-2-amine compounds” (Pfizer Inc., priority 2013, dated 2016).

Experiments:
BACE1 enzyme = BACE1 enzyme (Homo sapiens (Human), UniProt P56817); experiment: BACE1 Cell-Free Assay (fluorescence polarization, cleavage of synthetic APP substrate); type: biochemical; conditions: geometric mean of 2-3 determinations; Examples 32-34 (footnote b) single determination
Text: Beta-secretase (BACE) is one of the enzymes involved in the generation of the amyloid beta peptide found in the amyloid plaques of Alzheimer's Disease patients. This assay measures the inhibition of the beta-secretase enzyme as it cleaves a non-native peptide.
A synthetic APP substrate that can be cleaved by beta-secretase having N-terminal biotin and made fluorescent by the covalent attachment of Oregon Green at the Cys residue is used to assay beta-secretase activity in the presence or absence of the inhibitory compounds. The substrate is Biotin-GLTNIKTEEISEISY^EVEFR-C[Oregon Green]KK-OH. The BACE1 enzyme is affinity purified material from conditioned media of CHO-K1 cells that have been transfected with a soluble BACE construct (BACE1deltaTM96His). Compounds are incubated in a log dose response curve from a top concentration of 100 μM with BACE1 enzyme and the biotinylated fluorescent peptide in 384-well black plates (Thermo Scientific #4318). BACE1 is at a final concentration of 0.1 nM with a final concentration of peptide substrate of 150 nM in a reaction volume of 30 μL assay buffer [100 mM sodium acetate, pH 4.5 (brought to pH with acetic acid), and 0.001% Tween-20]. Plates are covered and incubated for 3 hours at 37° C. The reaction is stopped with the addition of 30 μL of 1.5 μM Streptavidin (Pierce, #21125). After a 10 minute incubation at room temperature, plates are read on a PerkinElmer EnVision for fluorescence polarization (Ex485 nm/Em530 nm). The activity of the beta-secretase enzyme is detected by changes in the fluorescence polarization that occur when the substrate is cleaved by the enzyme.

[1] = system: sAPPβ levels in H4 human neuroglioma cells over-expressing the wild-type human APP695; experiment: Whole Cell Assay (In Vitro sAPPβ Assay), TMB-ELISA; type: cell-based; conditions: 18 hours, geometric mean of 2-3 determinations, Examples 32-34 (footnote b) single determination
Method: Whole Cell Assay (In Vitro sAPPpβ Assay):
H4 human neuroglioma cells over-expressing the wild-type human APP695 are treated for 18 hours with compound in a final concentration 1% DMSO. sAPPβ levels are measured using TMB-ELISA with capture APP N-terminal antibody (Affinity BioReagents, OMA1-03132), wild-type sAPPβ specific reporter p192 (Elan), and tertiary anti rabbit-HRP (GE Healthcare).

Chain of BACE1 enzyme (P56817 46-457): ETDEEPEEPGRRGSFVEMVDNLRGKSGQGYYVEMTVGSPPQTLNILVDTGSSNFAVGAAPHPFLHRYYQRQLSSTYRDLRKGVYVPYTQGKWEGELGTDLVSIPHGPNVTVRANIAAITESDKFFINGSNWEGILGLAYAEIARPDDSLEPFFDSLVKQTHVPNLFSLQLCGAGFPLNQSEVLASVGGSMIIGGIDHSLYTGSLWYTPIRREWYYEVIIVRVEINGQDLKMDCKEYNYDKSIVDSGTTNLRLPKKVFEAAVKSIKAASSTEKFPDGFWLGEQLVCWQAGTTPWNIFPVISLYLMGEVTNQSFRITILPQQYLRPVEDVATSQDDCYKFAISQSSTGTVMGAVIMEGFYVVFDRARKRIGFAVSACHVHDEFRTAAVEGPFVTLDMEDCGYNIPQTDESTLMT

## COc1ccc(F)c([C@H]2C[C@H]3CSC(N)=N[C@@]3(c3ccc(F)cc3F)CO2)c1 [Example 22, (4aR,6R,8aS)-8a-(2,4-difluorophenyl)-6-(2-fluoro-5-methoxyphenyl)-4,4a,5,6,8,8a-hexahydropyrano[3,4-d][1,3]thiazin-2-amine]
BACE1 enzyme
  IC50: 397 nM
[1]
  IC50: 0.248 nM

## NC1=N[C@@]2(c3ccc(F)cc3F)CO[C@@H](c3ccc(F)cc3)C[C@H]2CS1 [Example 1, (4aR,6R,8aS)-8a-(2,4-difluorophenyl)-6-(4-fluorophenyl)-4,4a,5,6,8,8a-hexahydropyrano[3,4-d][1,3]thiazin-2-amine]
BACE1 enzyme
  IC50: 14 nM
[1]
  IC50: 0.006 nM

## NC1=N[C@@]2(c3ccc(F)cc3F)CO[C@@H](c3ccc4c(c3)CCO4)C[C@H]2CS1 [Example 26, (4aR,6R,8aS)-8a-(2,4-difluorophenyl)-6-(2,3-dihydro-1-benzofuran-5-yl)-4,4a,5,6,8,8a-hexahydropyrano[3,4-d][1,3]thiazin-2-amine]
BACE1 enzyme
  IC50: 6 nM
[1]
  IC50: 0.005 nM

## Cc1ccc(F)c([C@H]2C[C@H]3CSC(N)=N[C@@]3(c3ccc(F)cc3F)CO2)c1 [Example 11, (4aR,6R,8aS)-8a-(2,4-difluorophenyl)-6-(2-fluoro-5-methylphenyl)-4,4a,5,6,8,8a-hexahydropyrano[3,4-d][1,3]thiazin-2-amine]
BACE1 enzyme
  IC50: 21 nM
[1]
  IC50: 0.017 nM

## COc1ccc([C@H]2C[C@H]3CSC(N)=N[C@@]3(c3ccc(F)cc3F)CO2)cc1 [Example 16, (4aR,6R,8aS)-8a-(2,4-difluorophenyl)-6-(4-methoxyphenyl)-4,4a,5,6,8,8a-hexahydropyrano[3,4-d][1,3]thiazin-2-amine]
BACE1 enzyme
  IC50: 29 nM
[1]
  IC50: 0.018 nM

## COC(C)c1ccc([C@H]2C[C@H]3CSC(N)=N[C@@]3(c3ccc(F)cc3F)CO2)cc1 (stereo partly drawn) [Example 28, (4aR,6R,8aS)-8a-(2,4-difluorophenyl)-6-[4-(1-methoxyethyl)phenyl]-4,4a,5,6,8,8a-hexahydropyrano[3,4-d][1,3]thiazin-2-amine]
BACE1 enzyme
  IC50: 210 nM
[1]
  IC50: 0.055 nM

## C[C@H]1SC(N)=N[C@@]2(c3ccc(F)cc3F)CO[C@@H](c3ccc(C#N)cc3)C[C@@H]12 [Example 33, (4R,4aR,6R,8aS)-8a-(2,4-Difluorophenyl)-6-(4-cyanophenyl)-4-methyl-4,4a,5,6,8,8a-hexahydropyrano[3,4-d][1,3]thiazin-2-amine]
BACE1 enzyme
  IC50: 11 nM
[1]
  IC50: 0.006 nM

## NC1=N[C@@]2(c3ccc(F)cc3F)CO[C@@H](c3ccccc3F)C[C@H]2CS1 [Example 3, (4aR,6R,8aS)-8a-(2,4-difluorophenyl)-6-(2-fluorophenyl)-4,4a,5,6,8,8a-hexahydropyrano[3,4-d][1,3]thiazin-2-amine]
BACE1 enzyme
  IC50: 86 nM
[1]
  IC50: 0.055 nM

## NC1=N[C@@]2(c3ccc(F)cc3F)CO[C@@H](c3ccc(F)c(F)c3)C[C@H]2CS1 [Example 5, (4aR,6R,8aS)-8a-(2,4-difluorophenyl)-6-(3,4-difluorophenyl)-4,4a,5,6,8,8a-hexahydropyrano[3,4-d][1,3]thiazin-2-amine]
BACE1 enzyme
  IC50: 10 nM
[1]
  IC50: 0.007 nM

## N#Cc1cccc([C@H]2C[C@H]3CSC(N)=N[C@@]3(c3ccc(F)cc3F)CO2)c1 [Example 29, 3-[(4aR,6R,8aS)-2-amino-8a-(2,4-difluorophenyl)-4,4a,5,6,8,8a-hexahydropyrano[3,4-d][1,3]thiazin-6-yl]benzonitrile]
BACE1 enzyme
  IC50: 99 nM
[1]
  IC50: 0.012 nM

## COCc1cccc([C@H]2C[C@H]3CSC(N)=N[C@@]3(c3ccc(F)cc3F)CO2)c1 [Example 24, (4aR,6R,8aS)-8a-(2,4-difluorophenyl)-6-[3-(methoxymethyl)phenyl]-4,4a,5,6,8,8a-hexahydropyrano[3,4-d][1,3]thiazin-2-amine]
BACE1 enzyme
  IC50: 161 nM
[1]
  IC50: 0.071 nM

## NC1=N[C@@]2(c3ccc(F)cc3F)CO[C@@H](c3cccc(F)c3)C[C@H]2CS1 [Example 2, (4aR,6R,8aS)-8a-(2,4-difluorophenyl)-6-(3-fluorophenyl)-4,4a,5,6,8,8a-hexahydropyrano[3,4-d][1,3]thiazin-2-amine]
BACE1 enzyme
  IC50: 22 nM
[1]
  IC50: 0.009 nM

## Cc1ccc([C@H]2C[C@H]3CSC(N)=N[C@@]3(c3ccc(F)cc3F)CO2)cc1F [Example 9, (4aR,6R,8aS)-8a-(2,4-difluorophenyl)-6-(3-fluoro-4-methylphenyl)-4,4a,5,6,8,8a-hexahydropyrano[3,4-d][1,3]thiazin-2-amine]
BACE1 enzyme
  IC50: 13 nM
[1]
  IC50: 0.012 nM

## C[C@H]1SC(N)=N[C@@]2(c3ccc(F)cc3F)CO[C@@H](c3ccc(F)cc3)C[C@@H]12 [Example 32, (4R,4aR,6R,8aS)-8a-(2,4-Difluorophenyl)-6-(4-fluorophenyl)-4-methyl-4,4a,5,6,8,8a-hexahydropyrano[3,4-d][1,3]thiazin-2-amine]
BACE1 enzyme
  IC50: 15 nM
[1]
  IC50: 0.004 nM

## COCc1ccc([C@H]2C[C@H]3CSC(N)=N[C@@]3(c3ccc(F)cc3F)CO2)cc1 [Example 25, (4aR,6R,8aS)-8a-(2,4-difluorophenyl)-6-[4-(methoxymethyl)phenyl]-4,4a,5,6,8,8a-hexahydropyrano[3,4-d][1,3]thiazin-2-amine]
BACE1 enzyme
  IC50: 22 nM
[1]
  IC50: 0.01 nM

## Cc1cc([C@H]2C[C@H]3CSC(N)=N[C@@]3(c3ccc(F)cc3F)CO2)ccc1F [Example 8, (4aR,6R,8aS)-8a-(2,4-difluorophenyl)-6-(4-fluoro-3-methylphenyl)-4,4a,5,6,8,8a-hexahydropyrano[3,4-d][1,3]thiazin-2-amine]
BACE1 enzyme
  IC50: 6 nM
[1]
  IC50: 0.008 nM

## NC1=N[C@@]2(c3ccc(F)cc3F)CO[C@@H](c3ccc4c(c3)OCO4)C[C@H]2CS1 [Example 27, (4aR,6R,8aS)-6-(1,3-benzodioxol-5-yl)-8a-(2,4-difluorophenyl)-4,4a, 5,6,8,8a-hexahydropyrano[3,4-d][1,3]thiazin-2-amine]
BACE1 enzyme
  IC50: 19 nM
[1]
  IC50: 0.008 nM

## COc1ccc([C@H]2C[C@H]3CSC(N)=N[C@@]3(c3ccc(F)cc3F)CO2)cc1F [Example 19, (4aR,6R,8aS)-8a-(2,4-difluorophenyl)-6-(3-fluoro-4-methoxyphenyl)-4,4a,5,6,8,8a-hexahydropyrano[3,4-d][1,3]thiazin-2-amine]
BACE1 enzyme
  IC50: 44 nM
[1]
  IC50: 0.023 nM

## NC1=N[C@@]2(c3ccc(F)cc3F)CO[C@@H](c3ccc(OC(F)(F)F)cc3)C[C@H]2CS1 [Example 15, (4aR,6R,8aS)-8a-(2,4-difluorophenyl)-6-[4-(trifluoromethoxy)phenyl]-4,4a,5,6,8,8a-hexahydropyrano[3,4-d][1,3]thiazin-2-amine]
BACE1 enzyme
  IC50: 21 nM
[1]
  IC50: 0.142 nM

## COc1cc(F)cc([C@H]2C[C@H]3CSC(N)=N[C@@]3(c3ccc(F)cc3F)CO2)c1 [Example 21, (4aR,6R,8aS)-8a-(2,4-difluorophenyl)-6-(3-fluoro-5-methoxyphenyl)-4,4a,5,6,8,8a-hexahydropyrano[3,4-d][1,3]thiazin-2-amine]
BACE1 enzyme
  IC50: 335 nM
[1]
  IC50: 0.216 nM

## Cc1ccccc1[C@H]1C[C@H]2CSC(N)=N[C@@]2(c2ccc(F)cc2F)CO1 [Example 7, (4aR,6R,8aS)-8a-(2,4-difluorophenyl)-6-(2-methylphenyl)-4,4a,5,6,8,8a-hexahydropyrano[3,4-d][1,3]thiazin-2-amine]
BACE1 enzyme
  IC50: 970 nM
[1]
  IC50: 0.665 nM

## NC1=N[C@@]2(c3ccc(F)cc3F)CO[C@@H](c3ccc(C(F)(F)F)cc3)C[C@H]2CS1 [Example 14, (4aR,6R,8aS)-8a-(2,4-difluorophenyl)-6-[4-(trifluoromethyl)phenyl]-4,4a,5,6,8,8a-hexahydropyrano[3,4-d][1,3]thiazin-2-amine]
[1]
  IC50: 0.176 nM

## COc1cc([C@H]2C[C@H]3CSC(N)=N[C@@]3(c3ccc(F)cc3F)CO2)ccc1F [Example 18, (4aR,6R,8aS)-8a-(2,4-difluorophenyl)-6-(4-fluoro-3-methoxyphenyl)-4,4a,5,6,8,8a-hexahydropyrano[3,4-d][1,3]thiazin-2-amine]
BACE1 enzyme
  IC50: 214 nM
[1]
  IC50: 0.095 nM

## NC1=N[C@@]2(c3ccc(F)cc3F)CO[C@@H](c3cccc(C(F)(F)F)c3)C[C@H]2CS1 [Example 13, (4aR,6R,8aS)-8a-(2,4-difluorophenyl)-6-[3-(trifluoromethyl)phenyl]-4,4a,5,6,8,8a-hexahydropyrano[3,4-d][1,3]thiazin-2-amine]
BACE1 enzyme
  IC50: 97 nM
[1]
  IC50: 0.222 nM

## Cc1cc(F)cc([C@H]2C[C@H]3CSC(N)=N[C@@]3(c3ccc(F)cc3F)CO2)c1 [Example 10, (4aR,6R,8aS)-8a-(2,4-difluorophenyl)-6-(3-fluoro-5-methylphenyl)-4,4a,5,6,8,8a-hexahydropyrano[3,4-d][1,3]thiazin-2-amine]
BACE1 enzyme
  IC50: 16 nM
[1]
  IC50: 0.038 nM
